Test system: human TRPM8
Assay: TRPM8 Protocol-FLIPR Assay (intracellular Ca2+)
Assay type: cell-based
Conditions: for TRPM8 Time Course Activity 50 sec % of WS5 / TRPM8 Time Course Activity 3 min % of WS5 / TRPM8 Time Course Activity 5 min % of WS5 / TRPM8 Time Course Activity 10 min % of WS5: vs 30 uM WS-5; for TRPM8 Time Course Activity 50 sec: fluorescence at 50 sec; for TRPM8 Time Course Activity 3 min: fluorescence at 3 min; for TRPM8 Time Course Activity 5 min: fluorescence at 5 min; for TRPM8 Time Course Activity 10 min: fluorescence at 10 min

CC(C)[C@@H]1CC[C@@H](C)C[C@H]1C(=O)NCC(NC(=O)[C@@H](C)N)c1ccccc1 (single isomer, unassigned) [Compound 28 fraction 2]
TRPM8 Time Course Activity 50 sec % of WS5 (dose 6.1 nM): 19.3%
TRPM8 Time Course Activity 3 min % of WS5 (dose 6.1 nM): 46.0%
TRPM8 Time Course Activity 5 min % of WS5 (dose 6.1 nM): 50.3%
TRPM8 Time Course Activity 10 min % of WS5 (dose 6.1 nM): 50.6%
TRPM8 Time Course Activity 50 sec (dose 6.1 nM): 1944.0
TRPM8 Time Course Activity 3 min (dose 6.1 nM): 4350.0
TRPM8 Time Course Activity 5 min (dose 6.1 nM): 4763.0
TRPM8 Time Course Activity 10 min (dose 6.1 nM): 4844.0
TRPM8 Time Course Activity 50 sec % of WS5 (dose 12.2 nM): 18.0%
TRPM8 Time Course Activity 3 min % of WS5 (dose 12.2 nM): 57.6%
TRPM8 Time Course Activity 5 min % of WS5 (dose 12.2 nM): 65.7%
TRPM8 Time Course Activity 10 min % of WS5 (dose 12.2 nM): 71.1%
TRPM8 Time Course Activity 50 sec (dose 12.2 nM): 1814.0
TRPM8 Time Course Activity 3 min (dose 12.2 nM): 5446.0
TRPM8 Time Course Activity 5 min (dose 12.2 nM): 6224.0
TRPM8 Time Course Activity 10 min (dose 12.2 nM): 6809.0
TRPM8 Time Course Activity 50 sec % of WS5 (dose 24.4 nM): 23.0%
TRPM8 Time Course Activity 3 min % of WS5 (dose 24.4 nM): 68.2%
TRPM8 Time Course Activity 5 min % of WS5 (dose 24.4 nM): 76.3%
TRPM8 Time Course Activity 10 min % of WS5 (dose 24.4 nM): 82.0%
TRPM8 Time Course Activity 50 sec (dose 24.4 nM): 2311.0
TRPM8 Time Course Activity 3 min (dose 24.4 nM): 6441.0
TRPM8 Time Course Activity 5 min (dose 24.4 nM): 7226.0
TRPM8 Time Course Activity 10 min (dose 24.4 nM): 7848.0
TRPM8 Time Course Activity 50 sec % of WS5 (dose 48.8 nM): 24.9%
TRPM8 Time Course Activity 3 min % of WS5 (dose 48.8 nM): 81.7%
TRPM8 Time Course Activity 5 min % of WS5 (dose 48.8 nM): 89.6%
TRPM8 Time Course Activity 10 min % of WS5 (dose 48.8 nM): 97.0%
TRPM8 Time Course Activity 50 sec (dose 48.8 nM): 2502.0
TRPM8 Time Course Activity 3 min (dose 48.8 nM): 7721.0
TRPM8 Time Course Activity 5 min (dose 48.8 nM): 8488.0
TRPM8 Time Course Activity 10 min (dose 48.8 nM): 9289.0
TRPM8 Time Course Activity 50 sec % of WS5 (dose 97.6 nM): 49.8%
TRPM8 Time Course Activity 3 min % of WS5 (dose 97.6 nM): 106.9%
TRPM8 Time Course Activity 5 min % of WS5 (dose 97.6 nM): 113.5%
TRPM8 Time Course Activity 10 min % of WS5 (dose 97.6 nM): 118.8%
TRPM8 Time Course Activity 50 sec (dose 97.6 nM): 5007.0
TRPM8 Time Course Activity 3 min (dose 97.6 nM): 10101.0
TRPM8 Time Course Activity 5 min (dose 97.6 nM): 10747.0
TRPM8 Time Course Activity 10 min (dose 97.6 nM): 11375.0
TRPM8 Time Course Activity 50 sec % of WS5 (dose 195 nM): 72.4%
TRPM8 Time Course Activity 3 min % of WS5 (dose 195 nM): 121.5%
TRPM8 Time Course Activity 5 min % of WS5 (dose 195 nM): 126.8%
TRPM8 Time Course Activity 10 min % of WS5 (dose 195 nM): 129.8%
TRPM8 Time Course Activity 50 sec (dose 195 nM): 7287.0
TRPM8 Time Course Activity 3 min (dose 195 nM): 11477.0
TRPM8 Time Course Activity 5 min (dose 195 nM): 12007.0
TRPM8 Time Course Activity 10 min (dose 195 nM): 12427.0
TRPM8 Time Course Activity 50 sec % of WS5 (dose 390 nM): 87.1%
TRPM8 Time Course Activity 3 min % of WS5 (dose 390 nM): 126.5%
TRPM8 Time Course Activity 5 min % of WS5 (dose 390 nM): 129.9%
TRPM8 Time Course Activity 10 min % of WS5 (dose 390 nM): 136.0%
TRPM8 Time Course Activity 50 sec (dose 390 nM): 8766.0
TRPM8 Time Course Activity 3 min (dose 390 nM): 11955.0
TRPM8 Time Course Activity 5 min (dose 390 nM): 12301.0
TRPM8 Time Course Activity 10 min (dose 390 nM): 13026.0
TRPM8 Time Course Activity 50 sec % of WS5 (dose 781 nM): 103.7%
TRPM8 Time Course Activity 3 min % of WS5 (dose 781 nM): 136.4%
TRPM8 Time Course Activity 5 min % of WS5 (dose 781 nM): 138.3%
TRPM8 Time Course Activity 10 min % of WS5 (dose 781 nM): 147.4%
TRPM8 Time Course Activity 50 sec (dose 781 nM): 10428.0
TRPM8 Time Course Activity 3 min (dose 781 nM): 12887.0
TRPM8 Time Course Activity 5 min (dose 781 nM): 13091.0
TRPM8 Time Course Activity 10 min (dose 781 nM): 14116.0
TRPM8 Time Course Activity 50 sec % of WS5 (dose 1.563 uM): 112.6%
TRPM8 Time Course Activity 3 min % of WS5 (dose 1.563 uM): 134.0%
TRPM8 Time Course Activity 5 min % of WS5 (dose 1.563 uM): 136.8%
TRPM8 Time Course Activity 10 min % of WS5 (dose 1.563 uM): 145.1%
TRPM8 Time Course Activity 50 sec (dose 1.563 uM): 11331.0
TRPM8 Time Course Activity 3 min (dose 1.563 uM): 12663.0
TRPM8 Time Course Activity 5 min (dose 1.563 uM): 12954.0
TRPM8 Time Course Activity 10 min (dose 1.563 uM): 13892.0
TRPM8 Time Course Activity 50 sec % of WS5 (dose 3.125 uM): 116.9%
TRPM8 Time Course Activity 3 min % of WS5 (dose 3.125 uM): 134.4%
TRPM8 Time Course Activity 5 min % of WS5 (dose 3.125 uM): 136.6%
TRPM8 Time Course Activity 10 min % of WS5 (dose 3.125 uM): 145.1%
TRPM8 Time Course Activity 50 sec (dose 3.125 uM): 11757.0
TRPM8 Time Course Activity 3 min (dose 3.125 uM): 12699.0
TRPM8 Time Course Activity 5 min (dose 3.125 uM): 12937.0
TRPM8 Time Course Activity 10 min (dose 3.125 uM): 13890.0
TRPM8 Time Course Activity 50 sec % of WS5 (dose 6.25 uM): 121.6%
TRPM8 Time Course Activity 3 min % of WS5 (dose 6.25 uM): 133.8%
TRPM8 Time Course Activity 5 min % of WS5 (dose 6.25 uM): 136.2%
TRPM8 Time Course Activity 10 min % of WS5 (dose 6.25 uM): 144.0%
TRPM8 Time Course Activity 50 sec (dose 6.25 uM): 12236.0
TRPM8 Time Course Activity 3 min (dose 6.25 uM): 12644.0
TRPM8 Time Course Activity 5 min (dose 6.25 uM): 12891.0
TRPM8 Time Course Activity 10 min (dose 6.25 uM): 13793.0
TRPM8 Time Course Activity 50 sec % of WS5 (dose 12.5 uM): 123.4%
TRPM8 Time Course Activity 3 min % of WS5 (dose 12.5 uM): 132.3%
TRPM8 Time Course Activity 5 min % of WS5 (dose 12.5 uM): 135.2%
TRPM8 Time Course Activity 10 min % of WS5 (dose 12.5 uM): 143.6%
TRPM8 Time Course Activity 50 sec (dose 12.5 uM): 12415.0
TRPM8 Time Course Activity 3 min (dose 12.5 uM): 12501.0
TRPM8 Time Course Activity 5 min (dose 12.5 uM): 12801.0
TRPM8 Time Course Activity 10 min (dose 12.5 uM): 13755.0
TRPM8 Time Course Activity 50 sec % of WS5 (dose 25 uM): 120.4%
TRPM8 Time Course Activity 3 min % of WS5 (dose 25 uM): 126.9%
TRPM8 Time Course Activity 5 min % of WS5 (dose 25 uM): 129.7%
TRPM8 Time Course Activity 10 min % of WS5 (dose 25 uM): 137.2%
TRPM8 Time Course Activity 50 sec (dose 25 uM): 12110.0
TRPM8 Time Course Activity 3 min (dose 25 uM): 11993.0
TRPM8 Time Course Activity 5 min (dose 25 uM): 12284.0
TRPM8 Time Course Activity 10 min (dose 25 uM): 13140.0
TRPM8 Time Course Activity 50 sec % of WS5 (dose 50 uM): 125.7%
TRPM8 Time Course Activity 3 min % of WS5 (dose 50 uM): 130.7%
TRPM8 Time Course Activity 5 min % of WS5 (dose 50 uM): 133.5%
TRPM8 Time Course Activity 10 min % of WS5 (dose 50 uM): 137.6%
TRPM8 Time Course Activity 50 sec (dose 50 uM): 12648.0
TRPM8 Time Course Activity 3 min (dose 50 uM): 12352.0
TRPM8 Time Course Activity 5 min (dose 50 uM): 12644.0
TRPM8 Time Course Activity 10 min (dose 50 uM): 13179.0
TRPM8 Time Course Activity 50 sec % of WS5 (dose 100 uM): 121.7%
TRPM8 Time Course Activity 3 min % of WS5 (dose 100 uM): 125.2%
TRPM8 Time Course Activity 5 min % of WS5 (dose 100 uM): 127.5%
TRPM8 Time Course Activity 10 min % of WS5 (dose 100 uM): 128.3%
TRPM8 Time Course Activity 50 sec (dose 100 uM): 12246.0
TRPM8 Time Course Activity 3 min (dose 100 uM): 11826.0
TRPM8 Time Course Activity 5 min (dose 100 uM): 12074.0
TRPM8 Time Course Activity 10 min (dose 100 uM): 12287.0
